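Briefly, cells in 96-well plates were exposed to five compound concentrations for 48 h, and endpoints were estimated by linear interpolation. Abbreviation: GI50, concentration required for 50% inhibition of growth. TGI: concentration producing complete growth inhibition.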
Columns and labels:
Experiment in all cases: NCI-60 cell line screen, 48 h
[1] = test system: HCT-116 colon
[2] = test system: OVCAR-4 ovarian
[3] = test system: OVCAR-8 ovarian
[4] = test system: RPMI-8226 leukemia
[5] = test system: SF-268 CNS
[6] = test system: SK-MEL-2 melanoma
[7] = test system: SK-MEL-28 melanoma
[8] = test system: SR leukemia
[9] = test system: UACC-257 melanoma
[10] = test system: K-562 leukemia

## COc1cc2c(=O)n(CCN)c3c4cc5c(cc4ccc3c2cc1OC)OCO5
[1]
  GI50: 0.285 µM
  TGI: 1.31 µM
[2]
  GI50: 0.902 µM
  TGI: 2.55 µM
[3]
  GI50: 0.988 µM
  TGI: 3.91 µM
[4]
  GI50: 0.356 µM
  TGI: 2.37 µM
[5]
  GI50: 0.423 µM
  TGI: 2.14 µM
[6]
  GI50: 3.69 µM
  TGI: 16.5 µM
[7]
  GI50: 2.09 µM
  TGI: 6.17 µM
[8]
  GI50: 0.0907 µM
  TGI: 1.03 µM
[9]
  GI50: 1.92 µM
  TGI: 13.3 µM

## CC(CCC(=O)O)C(=O)O (configuration not stated)
[1]
  TGI: > 100 µM
[10]
  TGI: > 100 µM
[2]
  TGI: > 100 µM
[3]
  TGI: > 100 µM
[4]
  TGI: > 100 µM
[5]
  TGI: > 100 µM
[6]
  TGI: > 100 µM
[7]
  TGI: > 100 µM
[8]
  TGI: > 100 µM
[9]
  TGI: > 100 µM

## Nc1ccc(C(=O)CC(N)C(=O)O)cc1O (configuration not stated)
[1]
  TGI: > 100 µM
[10]
  TGI: > 100 µM
[2]
  TGI: > 100 µM
[3]
  TGI: > 100 µM
[4]
  TGI: > 100 µM
[5]
  TGI: > 100 µM
[6]
  TGI: > 100 µM
[7]
  TGI: > 100 µM
[8]
  TGI: > 100 µM
[9]
  TGI: > 100 µM

## CCOc1cccc(/C=N/NC(=O)C(=O)Nc2cccc(C(F)(F)F)c2)c1O
[1]
  GI50: 1.02 µM
  TGI: > 100 µM
[10]
  GI50: 2 µM
  TGI: > 100 µM
[2]
  GI50: 0.398 µM
  TGI: > 100 µM
[3]
  GI50: 1.29 µM
  TGI: > 100 µM
[4]
  GI50: 2.08 µM
  TGI: > 100 µM
[5]
  GI50: 1.24 µM
  TGI: 97 µM
[6]
  GI50: 5.3 µM
  TGI: > 100 µM
[7]
  GI50: 5.51 µM
  TGI: > 100 µM
[8]
  GI50: 0.705 µM
  TGI: 15.4 µM
[9]
  GI50: 2.57 µM
  TGI: 25 µM

## CCCOc1ccc2nc(NC(=O)OC)[nH]c2c1
[1]
  GI50: 0.22 µM
  TGI: > 100 µM
[2]
  GI50: 0.6 µM
  TGI: > 100 µM
[3]
  GI50: 0.485 µM
  TGI: > 100 µM
[4]
  GI50: 0.502 µM
  TGI: > 100 µM
[5]
  GI50: 2.43 µM
  TGI: > 100 µM
[6]
  GI50: 1.19 µM
  TGI: > 100 µM
[7]
  GI50: 0.285 µM
  TGI: > 100 µM
[8]
  GI50: 0.0319 µM
  TGI: > 100 µM
[9]
  GI50: > 100 µM
  TGI: > 100 µM

## Cc1cccc(-n2c(=S)[nH]c3c(sc(=O)n3-c3ccccc3C)c2=O)c1
[1]
  TGI: > 100 µM
[10]
  TGI: > 100 µM
[2]
  TGI: > 100 µM
[3]
  TGI: > 100 µM
[4]
  TGI: > 100 µM
[5]
  TGI: > 100 µM
[6]
  TGI: > 100 µM
[7]
  TGI: > 100 µM
[8]
  TGI: > 100 µM
[9]
  TGI: > 100 µM

## COc1ccc(Cn2cc3c(c2)-c2oncc2CC3)cc1
[1]
  GI50: 3 µM
  TGI: > 25.7 µM
[10]
  GI50: 2.4 µM
  TGI: > 66.5 µM
[2]
  GI50: 6.53 µM
  TGI: > 29.8 µM
[3]
  GI50: 9.34 µM
  TGI: > 100 µM
[4]
  GI50: 2.97 µM
  TGI: > 63.8 µM
[5]
  GI50: 8.19 µM
  TGI: > 100 µM
[6]
  GI50: 4.88 µM
  TGI: 22.3 µM
[7]
  GI50: 4.08 µM
  TGI: > 52.8 µM
[8]
  GI50: 1.41 µM
  TGI: 5.38 µM
[9]
  GI50: 12.3 µM
  TGI: > 85.1 µM

## COc1ccc(-c2oc3c(OC)c(OC)c(OC)c(OC)c3c(=O)c2OC)cc1OC
[1]
  TGI: > 100 µM
[10]
  TGI: > 100 µM
[2]
  TGI: > 100 µM
[3]
  TGI: 93.6 µM
[4]
  TGI: 34 µM
[5]
  TGI: 35.2 µM
[6]
  TGI: > 100 µM
[7]
  TGI: > 100 µM
[8]
  TGI: 79.9 µM
[9]
  TGI: > 100 µM

## CCOC(=O)c1cc(/C=C/C(C)=C/C(=O)OC)oc1C
[1]
  TGI: > 100 µM
[10]
  TGI: > 100 µM
[2]
  TGI: > 100 µM
[3]
  TGI: > 100 µM
[4]
  TGI: > 100 µM
[5]
  TGI: > 100 µM
[6]
  TGI: > 100 µM
[7]
  TGI: > 100 µM
[8]
  TGI: > 100 µM
[9]
  TGI: > 100 µM

## COc1cc(C(=O)Nc2cc3c(cc2Oc2cc(C)cc(C)c2)C(=O)N(C)[C@@H](CC(=O)N(C)O)C(=O)N3)c(Br)c(OC)c1OC
[1]
  GI50: < 0.00333 µM
  TGI: < 0.00333 µM
[10]
  GI50: < 0.00333 µM
  TGI: 0.00872 µM
[2]
  GI50: < 0.00333 µM
  TGI: < 0.00333 µM
[3]
  GI50: < 0.00333 µM
  TGI: 0.0181 µM
[4]
  GI50: < 0.00333 µM
  TGI: < 0.00333 µM
[5]
  GI50: < 0.00333 µM
  TGI: 0.0067 µM
[6]
  GI50: < 0.00333 µM
  TGI: < 0.00333 µM
[7]
  GI50: < 0.00333 µM
  TGI: < 0.00333 µM
[8]
  GI50: < 0.00333 µM
  TGI: 0.00904 µM
[9]
  GI50: < 0.00333 µM
  TGI: 0.00475 µM

## CCN(CC)C(=S)Oc1cc2oc(=O)cc(C)c2cc1Cl
[1]
  TGI: > 100 µM
[10]
  TGI: > 100 µM
[2]
  TGI: > 100 µM
[3]
  TGI: > 100 µM
[4]
  TGI: > 100 µM
[5]
  TGI: > 100 µM
[6]
  TGI: > 100 µM
[7]
  TGI: > 100 µM
[8]
  TGI: > 100 µM
[9]
  TGI: > 100 µM

## Nc1ccccc1C#C/C=C\C#Cc1ccccc1[N+](=O)[O-]
[1]
  GI50: 4.31 µM
  TGI: 36 µM
[10]
  GI50: 0.533 µM
  TGI: 5.93 µM
[3]
  GI50: 4.83 µM
  TGI: 32.9 µM
[4]
  GI50: 4.58 µM
  TGI: > 100 µM
[5]
  GI50: 6.38 µM
  TGI: 27.7 µM
[6]
  GI50: 12.9 µM
  TGI: 34.7 µM
[7]
  GI50: 15.4 µM
  TGI: 34.8 µM
[8]
  GI50: 0.289 µM
  TGI: 5.54 µM
[9]
  GI50: 4.98 µM
  TGI: 20 µM

## C=C1C(=O)O[C@H]2[C@H]1CC/C(COC(=O)c1cc3cc(Cl)ccc3[nH]1)=C\CC[C@@]1(C)O[C@@H]21
[1]
  GI50: 0.707 µM
  TGI: 2.06 µM
[10]
  GI50: 1.14 µM
  TGI: 4.14 µM
[2]
  GI50: 1.33 µM
  TGI: 2.72 µM
[3]
  GI50: 1.34 µM
  TGI: 3.32 µM
[4]
  GI50: 0.81 µM
  TGI: 3.28 µM
[5]
  GI50: 1.44 µM
  TGI: 2.86 µM
[6]
  GI50: 1.73 µM
  TGI: 3.59 µM
[7]
  GI50: 1.58 µM
  TGI: 3.1 µM
[8]
  GI50: 0.776 µM
  TGI: 3.61 µM
[9]
  GI50: 1.7 µM
  TGI: 3.2 µM

## CCC1=NC(CO)[C@H](c2ccccc2)O1 (some centres not stated)
[1]
  TGI: > 100 µM
[10]
  TGI: > 100 µM
[2]
  TGI: > 100 µM
[3]
  TGI: > 100 µM
[4]
  TGI: > 100 µM
[5]
  TGI: > 100 µM
[6]
  TGI: > 100 µM
[7]
  TGI: > 100 µM
[8]
  TGI: > 100 µM
[9]
  TGI: > 100 µM

## CCCCN(CCCC)c1c([N+](=O)[O-])c(=O)nc2ccccn12
[1]
  TGI: > 100 µM
[10]
  TGI: > 100 µM
[3]
  TGI: 94.6 µM
[4]
  TGI: > 100 µM
[5]
  TGI: > 100 µM
[6]
  TGI: > 100 µM
[7]
  TGI: 54 µM
[8]
  TGI: > 100 µM

## CCOP(=O)(OCC)OC(C#N)c1ccc(-c2ccccc2)cc1 (configuration not stated)
[1]
  TGI: 28.5 µM
[10]
  TGI: 40 µM
[2]
  TGI: 36.6 µM
[3]
  TGI: 37.4 µM
[4]
  TGI: 45.8 µM
[5]
  TGI: 44.4 µM
[6]
  TGI: > 100 µM
[7]
  TGI: > 100 µM
[8]
  TGI: 59 µM
[9]
  TGI: 36.8 µM

## COc1ccc(/C=C\c2cc(OC)c(O[Si](C)(C)C(C)(C)C)c(OC)c2)cc1
[1]
  TGI: > 100 µM
[10]
  TGI: > 100 µM
[2]
  TGI: > 100 µM
[3]
  TGI: > 100 µM
[4]
  TGI: 83.3 µM
[5]
  TGI: > 100 µM
[6]
  TGI: 65.2 µM
[7]
  TGI: 43.4 µM
[8]
  TGI: 56.2 µM
[9]
  TGI: 62.4 µM
